The text below walks through data of BindingDB's records for doi:10.1021/bi5004519 (University of Pennsylvania, 2014).

The target of assay [1] is T1, Arginase (Schistosoma mansoni, UniProt Q6WVP6).
T1 sequence (Q6WVP6 whole entry): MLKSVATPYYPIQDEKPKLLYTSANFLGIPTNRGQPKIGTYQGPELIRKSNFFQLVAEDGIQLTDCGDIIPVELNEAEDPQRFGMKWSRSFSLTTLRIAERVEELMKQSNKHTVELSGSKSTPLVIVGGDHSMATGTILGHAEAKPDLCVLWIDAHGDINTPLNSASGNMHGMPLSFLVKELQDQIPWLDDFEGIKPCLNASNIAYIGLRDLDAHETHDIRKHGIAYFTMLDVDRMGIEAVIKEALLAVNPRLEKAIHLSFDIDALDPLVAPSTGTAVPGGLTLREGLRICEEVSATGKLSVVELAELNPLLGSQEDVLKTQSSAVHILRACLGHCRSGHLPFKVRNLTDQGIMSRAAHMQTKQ
Briefly: ITC. As to conditions: pH 8.5. The procedure:
SmARG was dialyzed against 50 mM bicine (pH 8.5), 100 μM MnCl2, and 1.0 mM TCEP [5% (v/v) DMSO was included in the dialysis buffer when SmARG was titrated with ABH-PE and ABH-DP]. The inhibitor (ABH, 0.547 mM; NOHA, 1.097 mM; nor-NOHA, 0.443 mM; ABH-PE, 0.410 mM; ABH-DP, 0.436 mM) was dissolved in dialysis buffer.

In assay [2] the target is T1, Arginase. Briefly: Archibald assay. The following applies: pH 8.5. The procedure:
Briefly, 0.5-50 mM L-arginine (pH 8.5) was added to a solution of 50 mM 4-(2-hydroxyethyl)piperazine-1-propanesulfonic acid (EPPS) (pH 8.5) and 100 μM MnCl2. The reaction (200 μL) was initiated by adding 1 μM SmARG at 21°C and terminated after 1 min using 30 μL of a 3:1 (v/v) concentrated acid/dye solution.

Regarding `N[C@@](CCCCB(O)O)(C(=O)O)C1CCN(Cc2ccc(Cl)c(Cl)c2)CC1` [(R)-2-amino-6-borono-2-[1-(3,4-dichlorobenzyl)piperidin-4-yl]hexanoic acid (ABH-DP)], binding on Arginase [1] was put at a Kd of 540 nM.

On Arginase [2], `N[C@@H](CCCCB(O)O)C(=O)O` [2(S)-amino-6-boronohexanoic acid (ABH)] gave a Ki of 1800 nM. Further, the dissociation constant Kd at Arginase [1] was found to be 1300 nM.

`N[C@](CCCCB(O)O)(CCN1CCCCC1)C(=O)O`: on Arginase [1], the Kd was 260 nM.
